Experimental data published in ChEMBL document CHEMBL4265877, “Optimization of permeability in a series of pyrrolotriazine inhibitors of IRAK4” (Bioorg Med Chem, 2018).

What was measured:
[1] = Lipophilicity, log D of the compound at pH 7.4 by shake flask method; format: physicochemical; details: buffer
[2] = Intrinsic clearance in human microsomes assessed per mg protein; format: ADME, Microsome; details: read-out: CLH
[3] = Apparent permeability from apical to basolateral side in human Caco2 cells; format: ADME, cell-based; details: Caco-2

Structure (SMILES): CN(C)[C@H]1CC[C@H](Nc2ncnc3cc[nH]c23)CC1
- logD [1]: -0.3
- microsomal CLint [2]: < 3 µL/min/mg

Structure (SMILES): Cc1ccn2ncnc(N[C@H]3CC[C@H](N(C)C)CC3)c12
- logD [1]: 0.2
- Papp A→B [3]: 36 ×10⁻⁶ cm/s

Structure (SMILES): CN(C)[C@H]1CC[C@H](Nc2ncnc3ccsc23)CC1
- logD [1]: -0.2

Structure (SMILES): Cn1ccc2ncnc(N[C@H]3CC[C@H](N(C)C)CC3)c21
- logD [1]: -0.8

Structure (SMILES): CN(C)[C@H]1CC[C@H](Nc2ncnc3ccn(C4CCOCC4)c23)CC1
- logD [1]: -0.6

Structure (SMILES): CN(C)[C@H]1CC[C@H](Nc2ncnn3cccc23)CC1
- logD [1]: 0
- microsomal CLint [2]: < 3 µL/min/mg

Structure (SMILES): CN(C)[C@H]1CC[C@H](Nc2ncnc3cscc23)CC1
- logD [1]: 0.3
- microsomal CLint [2]: 39 µL/min/mg

Structure (SMILES): CN(C)[C@H]1CC[C@H](Nc2ncnc3ccoc23)CC1
- logD [1]: -0.7
